# Data from a melting point compilation (Tetko et al.; mined from patent text by program, amines drawn as free bases though some values may be those of a salt).
row,SMILES,melting point [°C]
1,O=C(NN=C(c1ccccc1)c1ccncc1)c1cccnc1,74
2,O=C(O)C1(CCCCCC(O)CCCCCC2(C(=O)O)CC2)CC1,87 to 91
3,CCCCCCCCCC(=O)Nc1ccc(S(=O)(=O)Nc2nncs2)cc1,151 to 152
4,CC(=O)OCC1=C(C(=O)O)N2C(=O)C(NC(=O)Cc3ccc(CN=[N+]=[N-])cc3)C2SC1 (configuration not stated),135 to 136
5,CCCCCCCCCCCCCCCCCCSC(C)CC#N (configuration not stated),38
6,CS(=O)(=O)c1ccc(-c2cnn(-c3ccc([N+](=O)[O-])cc3)c(=O)c2-c2ccc(F)cc2)cc1,110 to 116
7,Cc1ccc([N+](=O)[O-])c(=O)[nH]1,222 to 223
8,CCCOc1ccc(-c2ccc3c(c2)C=C(C(=O)O)CCN3C=O)cc1,215 to 217
9,O=C(NCc1ccccc1)OCC(=O)c1ccccc1,110 to 112
10,COC(=O)CN(C)C(=O)CC(Cc1cccc2ccccc12)C(=O)NC(Cc1c[nH]cn1)C(=O)NC(CC(C)C)C(O)C(=O)OC(C)C (mixture of isomers),76 to 80
11,CC(C)(C)OC(=O)N1CCC2(CC1)CC(CCc1ccccc1)=NO2,121 to 124
12,N#CC(C#N)=Cc1ccc(O)c(O)c1,225
13,COC(=O)C1CSCC1=O (configuration not stated),51
14,O=C(O)C[C@@H](Cc1ccccc1)C(=O)OCc1ccccc1,48 to 52
15,Cc1c(NC(=O)c2ccc(-c3ccc(Cl)s3)cc2)ccc2cc(CN3CCCC3)cnc12,210 to 211
16,Nc1cc(NC(=O)c2cc3cc(C(F)(F)F)ccc3n2Cc2cccc(F)c2)ccn1,225 to 226
17,CC[Si](CC)(CC)OC1CC2=CCC3C4CCC(=O)C4(C)CCC3C2(C)C(O[Si](CC)(CC)CC)C1 (configuration not stated),99 to 100
18,COc1cc(-c2oc3c(OC)cc(/C=C/CO)cc3c2C)ccc1O,180 to 183
19,ON=C(c1ccc(F)cc1)c1ccc2nc(N[C@@H]3CCc4ccccc43)ccc2c1,226
20,CC(C)(C)OC(=O)N1CCc2c(C=O)c3ccccc3n2CC1,167 to 168
21,CC(C)(CO)Nc1nc(SCc2cccc(Oc3ccccc3)c2)nc2nc(N)sc12,126 to 130

row,SMILES,melting point [°C]
1,COc1ccc(CN(C)CCCCCc2ccc(NC(=O)c3cccc4c(=O)c5ccccc5[nH]c34)cc2)cc1OC,110
2,CS(=O)(=O)c1ccc(-c2cc(CCCC(=O)O)nn2-c2ccc(C(F)(F)F)cc2)cc1,155 to 156
3,COc1cc2c(c3c1OC(C)(C)C3)C(c1cccc(NC(=O)C3CCC(=O)N3)c1)=NC(C)(C)C2 (configuration not stated),145 to 147
4,CCCc1nc(C(=O)O)c(C(=O)O)[nH]1,261 to 263
5,O=C(c1nc2ccc(O)cc2[nH]1)N1CCC(Cc2ccccc2)CC1,186
6,COc1cc2c(cc1S(=O)(=O)c1ccc(F)cc1)CCN(C)CC2,129 to 130
7,CN(CCCCP(=O)(O)O)S(=O)(=O)C(F)(F)C(F)(F)C(F)(F)C(F)(F)C(F)(F)C(F)(F)C(F)(F)C(F)(F)F,150 to 163
8,O=C(O)c1ccc2c(c1)oc(=O)c1cc(C(=O)O)ccc12,> 300
9,Cc1cc(-c2cc(C(F)(F)F)n3ncc(C(=O)Nc4cccc(S(=O)(=O)NC(C)(C)CO)c4)c3n2)ccc1C(F)(F)F,230
10,CC1(C)Oc2ccccc2C(c2ccc[nH]c2=O)C1O (configuration not stated),244 to 246
11,O=S1(=O)NCC(O)c2ccsc21 (configuration not stated),138 to 140
12,CCN(CC)c1c(OC)cccc1C(=O)O,68 to 71
13,COC(=O)C1=C(c2ccccc2)NC(C)=C(C(=O)OC(C)C)C1c1cccc([N+](=O)[O-])c1 (configuration not stated),184 to 186
14,CCCCc1oc2ccccc2c1-c1ncc(-c2ccc3c(Br)c(OCc4ccc(C(=O)OC)cc4)ccc3c2)o1,143 to 145
15,COc1ccccc1C1(O)C(O)CC(c2ccccc2)(c2ccccc2)C2CN(C(=O)Cc3ccccc3OCc3ccccc3)CC21 (configuration not stated),158
16,CCOP(=O)(CCCN)OCC,54
17,CCCCN(Cc1ccccc1)C(=O)Nc1ccc(C)cc1C,70 to 71
18,Cc1ccncc1-c1cncc(OC2SCC(O)C(O)C2O)c1 (configuration not stated),201
19,Cc1ccc2c(c1)OC(CCO)C(=O)N2 (configuration not stated),143 to 144
20,CCNC(=S)Nc1nc2ccc(OC(F)(F)F)cc2s1,199 to 200
21,CN1CC2(c3cccc(O)c3)CCCC1C2 (configuration not stated),144 to 146

row,SMILES,melting point [°C]
1,CN1CCc2c(c3ccc(-n4ccc(-c5ccc(C(F)(F)F)nc5)cc4=O)cc3n2C)C1,295 to 300
2,COc1cc(/C=C\c2ccc([N+](=O)[O-])cc2)cc(OC)c1OC,140 to 142
3,CCCCCCCCCCCCc1cc(NC(=O)Nc2c(C(C)C)cccc2C(C)C)on1,112 to 114
4,CCCCOCCOc1ccc(-c2ccc3c(c2)C=C(C(=O)Nc2ccc([C@@H](O)c4ccccn4)cc2)CCN3C=O)cc1,110 to 112
5,O=C(NC1CC1)c1cc([N+](=O)[O-])[nH]n1,206
6,O=C(Nc1ccc(N2CCN(C(=O)Nc3ccc(OCCO)cc3Cl)CC2)cc1)Nc1ccccc1F,213 to 217
7,CNC(=O)C(Cc1c[nH]c2ccccc12)NC(=O)Nc1n[nH]c(=S)s1 (configuration not stated),205 to 210
8,CCCC[C@H](NC(=O)[C@H](Cc1ccccc1)NC(=O)OCc1ccccc1)C(=O)CSCc1ccco1,123 to 124
9,COc1ccc2c(c1)OCC(c1ccc(C(F)(F)F)cc1)C2c1ccc(O)cc1 (configuration not stated),211 to 213
10,COc1ccc(C(=O)Nc2ccccc2CC2CCCCN2)cc1 (configuration not stated),108 to 109
11,COC(=O)COc1ccc(OC)cc1C(=O)OC,66 to 68.5
12,COc1cc(OC)c(-c2cccs2)cc1/C=C/C(=O)c1ccc(S(=O)(=O)NCc2cccnc2)cc1,167 to 168
13,O=C(CCN1CCCC1)Nc1ccc2nc3ccc(NC(=O)CCN4CCCC4)cc3c(Cl)c2c1,> 320
14,FC(F)(F)c1n[nH]c(Cl)c1Cl,58 to 60
15,CC(C)(C)c1cc(CN=[N+]=[N-])nn1-c1ccc(S(C)(=O)=O)cc1,115 to 117
16,Cc1nc2c([N+](=O)[O-])cc(S(=O)(=O)N(C)C)cc2n1C,194 to 196
17,c1cc(-c2ccc(-n3c4ccccc4c4ccccc43)cc2)cc(-n2c3ccccc3c3ccccc32)c1,244 to 246
18,COC(=O)CNc1cc2cc(OC)ccc2cc1OCc1ccccc1,129 to 131
19,CCCCCCCCC1C=CC(Cc2ccc(C(=O)O)o2)=C2N=C3CCCCC3=C21 (configuration not stated),152 to 155
20,CC(C)(C)OC(=O)Nc1ccc(C#Cc2ccccc2)cc1[N+](=O)[O-],146 to 148

# More lines, now with the values ahead:
row,melting point [°C],SMILES
1,246 to 248,COc1ccc(-c2[nH]c3ccc(Cl)cc3c2-c2ccc(S(C)(=O)=O)cc2)cc1
2,200 to 204,N=C(NS(=O)(=O)c1ccc(F)cc1)C1=NN(c2ccc(Cl)cc2)C(c2ccccc2)C1 (configuration not stated)
3,290 to 292,COC(=O)c1ccc2ncc(C(=O)NCc3ccc(Cl)cc3)c(O)c2c1
4,111 to 112,Cc1cc(-c2noc(CO)n2)ccc1Br
5,192 to 195,O=S(=O)(Cl)c1ccc(Nc2nccc(Cl)n2)cc1
6,157 to 160,CNCc1ccc(Cc2nc3ccccc3[nH]2)cc1
7,132 to 135,O=C(Nc1ccc(-n2nc(C(F)(F)F)cc2C2CC2)c(F)c1)c1cccc(F)c1F
8,270,Cc1ccc2c(c1)c1cc(-c3ccc(Cl)cc3Cl)c(=O)n(C)c1n2CC#N
9,155,CCCOC(=O)C=Nc1cc(Cl)ccc1C(=O)O
10,156,Fc1ccc(-c2ncc(Br)cn2)cc1
11,88.5 to 90,CCCCCCCCCCCCc1ccc2cccnc2c1O
12,145,CC(C)c1nc(-c2ccccn2)ncc1-c1ccc(Cl)cc1
13,123 to 125,O=C(O)Cc1cc([N+](=O)[O-])ccc1Sc1cccc(Br)c1
14,78 to 80,CC(C)N(CCC(CCN(C)C)(C(N)=O)c1ccc(F)cc1)C(C)C (configuration not stated)
15,92 to 95,CC(C)(C)OC(=O)N1CC=C(c2cnc3c(c2)N(Cc2cc(Cl)ccc2Cl)CCN3)CC1
16,126 to 127,CCCCNC(=O)NC(=O)C(C)Oc1ccc(Oc2ncc(C(F)(F)F)cc2Cl)cc1 (configuration not stated)
17,252 to 253,Cc1cc(NC(=O)N2CCc3cc(N(C)C)ccc32)c2ccccc2n1
18,169 to 171,Cc1cccc(CC(=O)N[C@H]2C[C@H](C(=O)O)Nc3cc(Cl)cc(Cl)c32)c1 (relative stereo)

row,melting point [°C],SMILES
1,156 to 159,CC(C)(c1ccc2ncccc2c1)n1nnc2ccc(-c3ccc(C(=O)NC4CC4)c(F)c3)nc21
2,109 to 110,O=C(Cc1cccs1)Nc1cc(N2CC(c3ccccc3)OC2=O)ccn1 (configuration not stated)
3,86 to 87,CC(C)CNC(=O)c1cccnc1Oc1cccc(Cl)c1
4,130 to 131,CC(=O)OCC1OC(c2ccc(F)c(Cc3ccc(Cl)s3)c2)C(OC(C)=O)C(OC(C)=O)C1OC(C)=O (configuration not stated)
5,130,COc1ccc(S(=O)(=O)N(CC(N)=O)c2ccc(N(C)C)cc2Cc2ccccc2Cl)cc1OC
6,86.2 to 87.5,CC(Br)c1ncnc(Sc2ccc(Cl)cc2)c1F (configuration not stated)
7,69 to 71,Brc1ccc2c(c1)Sc1ccccc1CC2
8,82 to 84.5,O=[N+]([O-])c1ccc(OCc2ccccc2)cc1Cl
9,132 to 134,CC(=NOCCO)c1ccc(-c2ccc3c(c2)OCO3)cc1
10,227 to 228,O=c1c(-c2ccc(O)cc2)coc2cc(O)ccc12
11,234 to 236,O=c1oc2ccccc2n2cnc(-c3noc(C4CC4)n3)c12
12,226,CCOC(=N)c1sc2cc(Cl)ccc2c1O
13,143 to 144,Cn1c(C(F)(F)F)cc(=O)n(-c2c(O)cc(Cl)cc2F)c1=O
14,105,CCN(CC)CC=CC(=O)Nc1cc2c(Nc3ccc(F)c(Cl)c3)ncnc2cc1OC1CCCC1
15,172 to 173,O=C(Nc1cccnc1)N1CCN(c2nc(-c3cccc(F)c3F)cs2)CC1
16,> 250,CC1CC(C)(C)C(CNc2ccnc3cc(Cl)ccc23)C1N (configuration not stated)
17,> 260,CC(=O)c1c(-c2ccnc3ccccc23)[nH]c(-c2ccnc3ccccc23)c1C
